Literature values, collected in patent US20090297541A1, “MATURATION OF DENDRITIC CELLS” (priority 2006, published 2009).

How the values were obtained:
immature DCs = details: MPLA at low doses (under 50 μg/ml)
monocyte-derived DCs = details: MPLA alone at concentrations up to 100 μg/ml
IFNGR1 chain = details: high affinity

| Substance | impact on DC maturation (monitored by IL-12 production) (immature DCs) | production of IL-12p70 or IL-10 (monocyte-derived DCs) | migration and functional maturation of DCs in vivo (murine DCs) | Kd (IFNGR1 chain) [nM] |
| --- | --- | --- | --- | --- |
| Monophosphoryl lipid A [MPLA] | no impact on DC maturation | failed to induce any significant production of IL-12p70 or IL-10 | induces the migration and functional maturation of murine DCs in vivo | – |
| IFN-gamma: cytokine, homodimer of two noncovalently bound polypeptide subunits; IFNγ receptor agonist | – | – | – | ~1 |
